According to patent publication US4937230A, “Method of healing wounds in horses” (ProCyte Corporation, priority 1987, dated 1990):

Legend:
[1] = system: granulation tissue ("proud flesh"); assay: Excessive accumulation of granulation tissue (proud flesh), topical treatment of horse K; type: in vivo; conditions: cream base 0.4% GHL:CU and 3% DMSO for one month
Text: History: An accumulation of unsightly granulation tissue or granuloma (known as "proud flesh") was present over a poorly healed wound (sight unspecified) in horse K. Typically, proud flesh often accompanies an insufficiently healing wound, appearing bubbly, swollen and nodular.

barbed-wire cuts/gashes = assay: Barbed-wire cuts/gashes, topical treatment of horses E, F and G; type: in vivo, horse
Text: (1) History: The skin of the hoof area of horse E was badly torn from barbed-wire.
Treatment: A cream base containing 0.4% GHL:CU and 6% DMSO was applied to the area 2 times/day.
(2) History: A 33-year-old horse (horse F) received a serious barbed wire wound to the lower leg directly into the cleft of the hoof. The wound area was ripped open, thereby dividing the hoof.
Treatment: A cream base with 0.4% GHL-CU and 6% DMSO was applied 1-2 times/day.
(3) History: A very deep barbed-wire induced gash on the upper rear leg of horse G was originally treated with antibiotics and closed with stitches.
Treatment: A cream containing 0.4% GHL-CU and 6% DMSO was applied for 2 weeks (1-2 times/day).

rope burn = assay: Rope burn, topical treatment of horse H; type: in vivo; conditions: rear ankle, cream base 0.4% GHL-CU and 6% DMSO, 2 times/day
Text: The rope burn had removed all hair and skin. A veterinarian treated the burn with antibiotics and a nitrofurosone ointment. The scab was removed daily with washing. The injury responded, although quite slowly.
Treatment: A cream base with 0.4% GHL-CU and 6% DMSO was applied to the burn 2 times/day. The scab was left on the area during the treatment period.

[2] = system: denuded area after injury (poor regrowth of hair); assay: Denuded area after injury, topical treatment of horses B and C; type: in vivo, horse; conditions: cream base 0.4% GHL-CU and 6% DMSO
Description: (1) History: Approximately 2 months following wounding (lower leg, cause unspecified) healing occurred in horse B with poor regrowth of hair. The affected area measured approximately 2 square inches
Treatment: A cream base containing 0.4% GHL-CU and 6% DMSO was applied to the denuded area 3-4 times/week. Substantial hair growth was noted after treatment for approximately 2-3 weeks.
(2) History: An ulcerative sore on the back of Horse C below the saddle horn area (withers) was treated by a veterinarian using antibiotics and an antibacterial spray. […] Hair was absent from the partially healed sore.
Treatment: A cream base consisting of 0.4% GHL-CU and 6% DMSO was applied 1-2 times/day. Within 3 weeks, the infected ulcerative area resolved and hair was noted to be covering the wound.

[3] = system: ulcerating pressure-induced injury; assay: Ulcerating pressure-induced injury, topical treatment of horse J; type: in vivo
Text: History: A 12-year-old thoroughbred (horse J) developed a large ulcer (2 inch diameter) on top of the withers (back beneath saddle horn area) A veterinarian treated the wound with antibiotics and an antibacterial spray. […] The wound continued to be large and inflamed after 3-4 months
Treatment: A cream containing 0.4% GHL:Cu with 6% DMSO was applied 1-2 times/day. The old scab fell off after a few days and was replaced by a new scab. After 2 weeks, the infection cleared up and ulceration began to be replaced by a skin covering. […] Approximately 1 month after beginning treatment, the ulcerative injury had resolved totally.

[4] = system: infected fly bites (raised nodules in the saddle region); assay: Saddle sores from fly bites, topical treatment of horse A; type: in vivo; conditions: cream base 0.4% GHL-CU and 6% DMSO, topical twice/daily
Text: History: Horse A suffered from fly bites which became infected and developed into irritating raised nodules located on the back in the saddle region over a period of 8 weeks.
Treatment: A cream base containing 0.4% GHL-CU and 6% DMSO was applied twice/daily to the nodules. Within 4-5 days, softening of the nodules occurred along with diminishment of irritation and inflammation. Total healing occurred within 10-14 days.

puncture wound = assay: Puncture wound, topical treatment of horse D; type: in vivo; conditions: upper leg, cream base 0.4% GHL-CU and 3% DMSO, twice/day
Description: History: A puncture wound of unknown origin occurred to the upper leg of horse D. No traditional therapy (antibiotics) was used prior to treatment.
Treatment: A cream base containing 0.4% GHL-CU and 3% DMSO was applied to the wound site shortly after the wound was discovered. […] The treatment was performed twice/day.

[5] = system: full-thickness skin loss wound; assay: Full-thickness skin loss, topical treatment of horse I; type: in vivo
Text: History: Horse I suffered from a traumatic injury to the anterior mid-calf aspect of the rear leg, caused by striking a fence while jumping. A flap of skin initially remained over the approximately 2.5 inch diameter wound. The leg was bandaged for a brief time, and the dead skin flap removed within 10 days post-injury. The leg appeared swollen and inflamed.
Inflammation and swelling had also diminished.

[6] = horse F, cream base 0.4% GHL-CU and 6% DMSO, 1-2 times/day

## Glycyl-L-Histidy-L-Lysine: Copper(II) [GHL:Cu]
[1]
  swelling and appearance of proud flesh: notable reduction in swelling and improved appearance
barbed-wire cuts/gashes; horse E, hoof area, cream base 0.4% GHL:CU and 6% DMSO, 2 times/day
  time until the wound scabbed over: 5 days
barbed-wire cuts/gashes; horse E, hoof area, treatment halted after 5 days
  examination of the wound 3 weeks after treatment: no evidence of infection
barbed-wire cuts/gashes; horse F, lower leg/hoof cleft, cream base 0.4% GHL-CU and 6% DMSO, 1-2 times/day
  new scab formation with reduction in wound size: within a few days
barbed-wire cuts/gashes; [6]
  time to almost total healing: ≤ 4 weeks
  wound course over 2 weeks of treatment: continuation of wound reduction and scab covering
barbed-wire cuts/gashes; horse G, dehisced gash upper rear leg, 6 inches x 1 inch, cream 0.4% GHL-CU and 6% DMSO, 1-2 times/day for 2 weeks
  scab formation over open, raw tissue: A scab formed quickly
barbed-wire cuts/gashes; horse G, cream 0.4% GHL-CU and 6% DMSO, 1-2 times/day for 2 weeks
  wound closure: Within weeks, the wound had begun to close and appeared healthy
barbed-wire cuts/gashes; horse G, noted when scab was removed during cleaning
  granulation of the gash: granulated considerably
Rope burn
  hair regrowth: hair grew back over the area
Rope burn; scab left on
  healing of the wound: healed up within a week
[2]; horse B, lower leg, about 2 square inches, 3-4 times/week
  treatment time after which substantial hair growth was noted: 2-3 weeks
[2]; horse C, ulcerative sore on the back, 1-2 times/day
  time to resolution of infected ulcerative area with hair covering the wound: ≤ 3 weeks
[3]; 2 inch diameter ulcer on withers, cream 0.4% GHL:Cu with 6% DMSO, 1-2 times/day
  time until infection cleared up and ulceration began to be replaced by skin covering: 2 weeks
[3]; cream 0.4% GHL:Cu with 6% DMSO, 1-2 times/day
  time until ulcerative injury had resolved totally: Approximately 1 month
[3]; shortly after 2 weeks
  hair growth over the area: hair began growing over the area
[4]
  time to softening of the nodules with diminishment of irritation and inflammation: 4 to 5 days
  time to total healing: 10 to 14 days
Puncture wound
  healing of the wound: healed within a few days
  infection of the wound: did not become infected

## Glycyl-L-Histidyl-L-Lysine octyl ester:Copper (II) [GHL-octyl ester Cu]
[5]; 1 time/day over the following week
  wound size under continued treatment: continued to decrease in size
[5]; about 2.5 inch diameter wound, cream base 0.4% GHL-octyl ester Cu and 6% DMSO, 2 times/day for 2 weeks
  reduction of wound size: ~50%
[5]; after 2 weeks, 2 times/day
  inflammation and swelling: diminished
  scab formation: a scab had formed over the area

## NC(=O)N/N=C/c1ccc([N+](=O)[O-])o1 [nitrofurosone, reference compound]
barbed-wire cuts/gashes; horse G, 0.2% antibacterial agent
  effect of prior treatment on the dehisced wound: ineffective
